Test results as given in patent US9394293B2, “TRPV1 antagonists including dihydroxy substituent and uses thereof” (Purdue Pharma L.P., priority 2011, dated 2016).

How the values were obtained:
[1] = biological target: T1, human TRPV1 (Homo sapiens (Human), UniProt Q8NER1); assay: pH-based assay, Protocol 2 (hpH-CHO); assay type: cell-based; details: read-out: TRPV1 IC50 Potency, Human pH CHO (hpH-CHO)
Procedure: (§1) For Protocol 2, a Chinese Hamster Ovary cell line (CHO) that has been engineered to constitutively express human recombinant TRPV1 was used (TRPV1/CHO cells). The TRPV1/CHO cell line was generated as described below.
TRPV1/CHO cells were seeded in the 96-well clear-bottom black-wall plate (Nunc) at densities of 1-2×10^4 cells/well and grown in 100 μL of culture medium (alpha-MEM supplemented with 10% FBS, 20 mM HEPES, 1 mg/mL geneticin and 1% antibiotic-antimycotic mixed stock solution) for 1-2 days before the experiment.
For the first half of a 96-well plate one agonist solution was used; for the second half the other agonist solution was used. The agonist solutions were obtained by diluting sulfuric acid (1M H2SO4) with measuring buffer. The concentrations for the two agonist solutions were determined as described above in Section 2 of Protocol 2.
The sulfuric acid concentrations between the two agonist solutions differed by 0.5 mM. […] After 1:4 dilution of the agonist solutions, the final sulfuric acid concentration was 3.2 mM and 3.3 mM, respectively. The resulting pH value for the pH assay was 5.0 to 5.1.
Test compounds were dissolved in DMSO to yield 1 mM stock solutions. […] The thereby-obtained solutions were further diluted in measuring buffer (1:100) as 10× stock serial dilutions with a DMSO concentration of 1%. 10 μL of a 10× stock was added into each well of an “antagonist plate” (see step 3.3.(4) below).
Steps (1) and (2) of this Assay were the same as steps 2.2.(1) and 2.2.(2), respectively, of Protocol 2.
(3) The cells were washed twice with 150 μL of measuring buffer (mentioned in step 2.2.(3) of Protocol 2, no probenecid). The wells were subsequently refilled with 70 μL of measuring buffer.
(4) Either 10 μL of measuring buffer or 10 μL of 10× stock serial dilution of test compound (described in step 3.2. above) were applied to each well. Usually, only one test compound was tested per 96-well plate. The number of replicates per 96-well plate for a particular antagonist at a particular concentration was 2×7 since, as described for the “agonist plate,” two different sulfuric acid concentrations were used per 96-well plate and seven lanes (A-C, E-H) per 96-well plate were used (N=2×7).
(6) Fura-2 fluorescent intensity was monitored as described in step 2.2.(5) above. After 16 time points of baseline detection, 20 μL of agonist solution (measuring buffer titrated with H2SO4 to yield a pH in the range of from about 5.0 to about 5.1 when mixed 1:4 with the measuring buffer containing test compound) was added to each well (final volume 100 μL/well).
Steps (7) and (8) were as described in steps 2.2.(6) and 2.2.(7) above, respectively.
(§2) The IC50 data provided in Table 10 are shown as mean±standard error of the mean; the number of trials conducted for each assay is shown in parentheses except for only a single trial where no number of trials is shown in parentheses.

[2] = biological target: T1, human TRPV1; assay: Capsaicin-based assay, Protocol 2 (hCAP-CHO); assay type: cell-based
Procedure: as §1
One day prior to assay, TRPV1/CHO cells were seeded in 96-well clear-bottom black plates (20,000 cells/well) in growth media. On the day of the experiment, the cells were washed with 0.2 mL 1× Hank's Balanced Salt Solution (Life Technologies) containing 1.6 mM CaCl2 and 20 mM HEPES, pH 7.4 (“wash buffer”). Subsequently, the cells were loaded by incubation in 0.1 mL of wash buffer containing Fluo-4 at 3 μM final concentration. After 1 hour, the cells were washed twice with 0.2 mL wash buffer and resuspended in 0.1 mL wash buffer. The plates were then transferred to a Fluorescence Imaging Plate Reader (Molecular Devices). Fluorescence intensity was monitored for 15 seconds to establish a baseline. Subsequently, test compounds diluted in assay buffer (lx Hank's Balanced Salt Solution containing 1 mM CaCl2 and 20 mM HEPES, pH 7.4) containing 1% DMSO were added to the cell plate and fluorescence was monitored for 2 minutes. […] Human TRPV1 was then activated by the addition of 50 μL capsaicin (100 nM final concentration) and plates incubated for an additional 3 min. Data were collected over the entire time course and analyzed using Excel and the curve-fitting formula GraphPad Prism.
as §2

[3] = In vivo assay of body temperature increase; set-up: species or system rat; details: rats, oral, 1 mg/mL at 10 mL/kg once; greatest ΔTb versus control at 0.5, 1 or 2 hrs after administration; rectal temperature
Source text: Selection of rats (Crl/SD rats, 7 weeks, male) was based on rectal body temperature measured during the morning of the day of dosing as described below. In addition, to minimize spontaneous, stress-induced increases in body temperature, rats were acclimated in advance to both the rectal measurement procedure and to being handled and dosed. All lodging and testing took place in animal care laboratories with constant room temperature and humidity. The rats were free to move and ingest food and water throughout. Each rat was coded with a colored line on the tail, housed in a separate cage, and permitted the normal range of movement. Immediately before each body temperature measurement, a rat was transferred to a measurement cage. To reduce stress which could influence its body temperature, each rat was covered with towels during the measurement. A thermistor probe was then carefully inserted into the rectum of each rat and left in place until the temperature reading on the digital display had stabilized; this value was recorded.
On the day before dosing, rectal body temperature was measured at 9:00, 10:00, 11:00, 12:30, 13:30, 14:30, and 15:30 o'clock to familiarize the rats with the measurement procedure prior to administration of the test or control treatments. The rats were also dosed by oral gavage without vehicle at 12:30 o'clock to acclimate and familiarize them with the handling and dosing procedure.
On the day of dosing, only rats with rectal body temperatures within the range of from 37.0° C. to 37.7° C. were selected for study. Rectal body temperatures were measured at 9:00, 10:00, and 11:00 o'clock. […] Rectal body temperatures of the selected rats were measured again at 12:30 o'clock and any rat with a rectal body temperature of 38.0° C. or greater was also excluded from the study.
Following assignment to either a test or control group, a test compound or a control was administered to the rats. […] Rectal body temperatures were measured at the following time points: 0.5, 1, and 2 hrs after administration. […]

[4] = biological target: T1, human TRPV1; assay: Human TRPV1 heat-based assay (hHeat-CHO); assay type: cell-based; details: hTRPV1/CHO cells, temperature ramp 25° C. to 45° C.; mean ± SEM (number of trials); read-out: TRPV1 IC50 Potency, Human Heat CHO (hHeat-CHO)
Procedure: Human TRPV1 Heat-Based Assay:
CHO cells stably expressing human TRPV1 (hTRPV1) were used. Functional assessment of heat-induced activation of hTRPV1 was carried out in a cell-based Ca^2+ flux assay using ABI7500 Fast Real-Time PCR System as described in Reubish et al., “Functional assessment of temperature-gated ion-channel activity using a real-time PCR machine,” www.BioTechniques.com 47(3):iii-ix (2009), which is hereby incorporated by reference. Briefly, hTRPV1/CHO cells were cultured in growth media in a tissue culture dish at 37° C. in a CO2 incubator. On the day of the assay, culture media were removed and the cells were then detached using 0.05% trypsin at 37° C. with 5% CO2, for 90 s. The detached cells were centrifuged (1000 rpm, 4 min) to remove trypsin-containing supernatant and resuspended in assay buffer (115 mM NaCl, 5.4 mM KCl, 0.8 mM MgCl2.6H2O, 1.8 mM CaCl2.2H2O, 13.8 mM D-glucose, and 20 mM HEPES). Then, the cells were loaded with 5 μM Fluo-4, a Ca^2+ reporter dye, in the presence of 2.5 mM probenecid at 37° C. with 5% CO2, for 45 min. Thereafter, the cells were washed twice with measuring buffer (assay buffer supplemented with 0.1% BSA and 3.2 mM CaCl2) then transferred to a Fast 96-well Reaction Plate (0.1 mL) (Part no. 4346907, MICROAMP, Applied Biosystems, Foster City, Calif.). The cell density was 100,000 cells/24 μL/well. A solution of the compound under test (6 μL/well) was added into each well of the 96-well plate. Thus, the reaction volume per well was 30 μL.
The plates were then placed inside an ABI7500 Fast Real-Time PCR instrument (Applied Biosystems) to read fluorescence at different temperatures using 7500 software, version 2.0.2 (Applied Biosystems). The initial temperature was set at 25° C. for 1 min. followed by a temperature ramp to 45° C. in 100 s to deliver heat to cells. [Ca^2+]i response of hTRPV1/CHO cells to heat was determined as: [fluorescence read at 45° C.−fluorescence read at 25° C.].
Compound concentration response curves and IC50 values were analyzed using GraphPad Prism 4 software (GraphPad Software, La Jolla, Calif.).
as §2

[5] = prepared and evaluated according to the methods described in WO2005/030766
[6] = TRPV1/CHO cells, pH 5.0-5.1, mean ± SEM (number of trials)
[7] = TRPV1/CHO cells, 100 nM capsaicin, mean ± SEM (number of trials), read-out: TRPV1 IC50 Potency, Human Capsaicin CHO (hCAP-CHO)

T1 sequence (Q8NER1 whole entry, looked up): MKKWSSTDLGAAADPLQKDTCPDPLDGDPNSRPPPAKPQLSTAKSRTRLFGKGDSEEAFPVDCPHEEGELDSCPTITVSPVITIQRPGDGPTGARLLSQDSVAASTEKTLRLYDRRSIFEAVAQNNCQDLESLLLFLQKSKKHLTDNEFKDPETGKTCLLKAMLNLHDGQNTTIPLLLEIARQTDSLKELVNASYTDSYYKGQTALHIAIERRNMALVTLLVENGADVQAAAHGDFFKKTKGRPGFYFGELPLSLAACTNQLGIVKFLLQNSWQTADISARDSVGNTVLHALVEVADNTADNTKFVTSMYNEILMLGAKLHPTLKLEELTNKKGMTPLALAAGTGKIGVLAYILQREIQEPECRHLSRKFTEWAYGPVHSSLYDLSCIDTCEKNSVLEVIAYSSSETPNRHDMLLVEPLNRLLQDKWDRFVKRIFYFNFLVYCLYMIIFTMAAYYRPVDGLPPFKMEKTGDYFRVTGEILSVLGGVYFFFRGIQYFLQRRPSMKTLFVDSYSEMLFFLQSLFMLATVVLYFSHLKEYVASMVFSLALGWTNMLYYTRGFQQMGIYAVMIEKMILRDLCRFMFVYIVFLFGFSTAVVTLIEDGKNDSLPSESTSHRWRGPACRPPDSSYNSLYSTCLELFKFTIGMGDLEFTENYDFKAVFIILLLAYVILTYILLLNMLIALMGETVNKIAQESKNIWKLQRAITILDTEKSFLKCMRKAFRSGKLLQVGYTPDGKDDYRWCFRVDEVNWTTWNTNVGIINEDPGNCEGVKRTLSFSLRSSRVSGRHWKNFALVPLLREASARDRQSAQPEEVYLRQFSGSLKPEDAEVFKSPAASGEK

Row | SMILES | IC50 [1, 5] [nM] | IC50 [2] [nM] | Body Temperature Increase ΔTb [3] [°C] | IC50 [4] [nM] | IC50 [1, 6] [nM] | IC50 [2, 7] [nM]
1 | Cc1cccnc1-c1ccc(C(=O)Nc2nc3ccc(Cl)cc3s2)cc1 [A, reference compound] | > 25000 | > 25000 |  |  |  | 
2 | C[C@H](O)[C@@H](O)c1cnc(N2CCN(C(=O)Nc3nc4ccc(F)cc4s3)[C@H](C)C2)c(Cl)c1 [BA] |  |  | 0.9 |  |  | 
3 | C[C@H](O)[C@@H](O)c1cnc(N2CCN(C(=O)Nc3nc4ccc(F)cc4s3)[C@@H](C)C2)c(F)c1 [BB] |  |  | 0.5 |  |  | 
4 | C[C@H](O)[C@@H](O)c1cnc(N2CCN(C(=O)Nc3nc4ccc(F)cc4s3)[C@H](C)C2)c(F)c1 [BC] |  |  | 0.7 |  |  | 
5 | Cc1cccnc1-c1ccc(C(=O)Nc2nc3ccc(F)cc3s2)cc1 [Compound B, reference compound] | > 25000 | 1140 ± 270 |  |  |  | 
6 | O=C(Nc1nc2ccccc2s1)c1ccc(-c2ncc(C[C@@H](O)CO)cc2F)cc1 [Compound G155a, (R)—N-(benzo[d]thiazol-2-yl)-4-[5-(2,3-dihydroxypropyl)-3-fluoropyridin-2-yl]benzamide] |  |  |  | 307 ± 10 | 44.3 ± 6.2 | 31.9 ± 7.6
7 | O=C(Nc1nc2ccccc2s1)c1ccc(-c2ncc(C[C@H](O)CO)cc2F)cc1 [Compound G155b, (S)—N-(benzo[d]thiazol-2-yl)-4-[5-(2,3-dihydroxypropyl)-3-fluoropyridin-2-yl]benzamide] |  |  |  | 580 | 45 ± 3.3 | 116 ± 9.6
8 | O=C(Nc1nc2ccc(Cl)cc2s1)c1ccc(-c2ncc(C[C@@H](O)CO)cc2F)cc1 [Compound G156a, (R)—N-(6-chlorobenzo[d]thiazol-2-yl)-4-[5-(2,3-dihydroxypropyl)-3-fluoropyridin-2-yl]benzamide] |  |  |  | > 10000 | 18.8 ± 1.8 | 28.7 ± 6.8
9 | O=C(Nc1nc2ccc(F)cc2s1)c1ccc(-c2ncc(C[C@@H](O)CO)cc2F)cc1 [Compound G158a, (R)-4-[5-(2,3-dihydroxypropyl)-3-fluoropyridin-2-yl]-N-(6-fluorobenzo[d]thiazol-2-yl)benzamide] |  |  |  | 598 ± 296 | 23.1 ± 3.1 | 77 ± 29
10 | Cc1ccc2nc(NC(=O)c3ccc(-c4ncc(C[C@@H](O)CO)cc4F)cc3)sc2c1 [Compound G159a, (R)-4-[5-(2,3-dihydroxypropyl)-3-fluoropyridin-2-yl]-N-(6-methylbenzo[d]thiazol-2-yl)benzamide] |  |  |  | 879 ± 13 | 13.7 ± 0.2 | 29.6 ± 7.9
11 | Cc1cc2nc(NC(=O)c3ccc(-c4ncc(C[C@@H](O)CO)cc4F)cc3)sc2cc1C [Compound G215a, (R)-4-[5-(2,3-dihydroxypropyl)-3-fluoropyridin-2-yl]-N-(5,6-dimethylbenzo[d]thiazol-2-yl)benzamide] |  |  |  |  | 105 ± 14 | 219 ± 58
